Measured values reported in ChEMBL document CHEMBL1201862, “PubChem BioAssay data set” (2004).
Active and inactive are the calls of the source.

What was measured:
Format in all cases: functional
[1] = target: T1, Polyadenylate-binding protein 1 (Homo sapiens, UniProt P11940); assay: PABP1 MLLE–PAM2 interaction inhibitors, dose response, miRNA deadenylation inhibitor project, biochemical, fluorescence polarization, Cy5-PAM2 peptide, secondary (AID 602260); conditions: read-out: IC50_Mean
[2] = target: T1, Polyadenylate-binding protein 1; assay: PABP1 MLLE–PAM2 binding inhibitor potency, dose response, biochemical, fluorescence polarization, FITC-PAM2 peptide (AID 602259); conditions: read-out: IC50_Mean
[3] = target: T2, Protein RecA (Mycobacterium tuberculosis, UniProt P9WHJ3); assay: Fluorescence Cell-Free Homogeneous Dose Retest to Identify Inhibitors of RecA-Intein Splicing Activity. [Related pubchem assays (depositor defined):AID2097, AID2223, AID489010, AID492950]
T2 sequence (P9WHJ3 whole entry): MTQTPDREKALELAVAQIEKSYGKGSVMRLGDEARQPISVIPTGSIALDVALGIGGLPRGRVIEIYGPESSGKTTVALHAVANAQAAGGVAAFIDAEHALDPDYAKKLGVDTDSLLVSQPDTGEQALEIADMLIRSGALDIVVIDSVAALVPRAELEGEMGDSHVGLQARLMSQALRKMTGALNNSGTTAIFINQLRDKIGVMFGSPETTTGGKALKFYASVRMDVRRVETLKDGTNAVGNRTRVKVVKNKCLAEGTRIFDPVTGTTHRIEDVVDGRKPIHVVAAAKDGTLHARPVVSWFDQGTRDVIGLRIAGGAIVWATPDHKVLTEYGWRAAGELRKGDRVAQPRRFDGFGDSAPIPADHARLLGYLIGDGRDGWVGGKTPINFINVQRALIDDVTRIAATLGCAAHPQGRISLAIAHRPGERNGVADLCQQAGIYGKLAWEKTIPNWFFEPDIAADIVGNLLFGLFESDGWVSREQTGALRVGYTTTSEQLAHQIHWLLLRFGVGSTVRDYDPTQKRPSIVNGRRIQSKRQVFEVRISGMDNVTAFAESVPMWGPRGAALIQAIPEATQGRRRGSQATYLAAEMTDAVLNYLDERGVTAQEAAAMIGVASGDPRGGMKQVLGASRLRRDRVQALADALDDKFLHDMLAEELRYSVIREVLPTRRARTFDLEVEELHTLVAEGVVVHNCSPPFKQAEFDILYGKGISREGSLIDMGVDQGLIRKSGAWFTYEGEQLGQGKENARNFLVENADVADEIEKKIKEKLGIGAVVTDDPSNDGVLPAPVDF

[4] = target: T3, Replicative DNA helicase DnaB (Mycobacterium tuberculosis, UniProt P9WMR3); assay: DnaB intein splicing inhibitors, dose response, biochemical, cell-free fluorescence (AID 449749)
T3 sequence (P9WMR3 whole entry): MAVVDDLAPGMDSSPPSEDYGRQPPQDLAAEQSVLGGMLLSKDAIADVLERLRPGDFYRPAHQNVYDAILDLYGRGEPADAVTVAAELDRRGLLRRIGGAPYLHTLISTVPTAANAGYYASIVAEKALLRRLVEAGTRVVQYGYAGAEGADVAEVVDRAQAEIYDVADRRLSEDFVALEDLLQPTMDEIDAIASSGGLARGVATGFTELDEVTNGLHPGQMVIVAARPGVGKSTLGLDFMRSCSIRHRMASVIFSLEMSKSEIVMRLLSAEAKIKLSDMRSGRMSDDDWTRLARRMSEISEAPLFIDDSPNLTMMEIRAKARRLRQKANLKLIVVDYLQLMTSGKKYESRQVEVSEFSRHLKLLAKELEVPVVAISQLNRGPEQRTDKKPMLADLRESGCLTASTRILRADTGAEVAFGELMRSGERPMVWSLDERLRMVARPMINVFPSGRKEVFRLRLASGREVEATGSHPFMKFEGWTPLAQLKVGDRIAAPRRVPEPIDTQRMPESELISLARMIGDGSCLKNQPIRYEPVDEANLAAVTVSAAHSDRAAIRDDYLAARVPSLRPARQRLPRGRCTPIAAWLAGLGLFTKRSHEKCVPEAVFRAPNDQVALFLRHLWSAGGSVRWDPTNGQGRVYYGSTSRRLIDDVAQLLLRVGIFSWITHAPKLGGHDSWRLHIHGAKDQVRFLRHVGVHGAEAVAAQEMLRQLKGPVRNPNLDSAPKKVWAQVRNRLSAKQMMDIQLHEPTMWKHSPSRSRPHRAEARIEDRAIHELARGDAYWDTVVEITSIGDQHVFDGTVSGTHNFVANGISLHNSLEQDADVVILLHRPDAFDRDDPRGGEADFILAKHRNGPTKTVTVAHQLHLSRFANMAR

[5] = Luminescence Cell-Based Dose Retest to Confirm Inhibitors of Cancer Stem Cells. [Related pubchem assays (depositor defined):AID2717, AID2721]; conditions: Homo sapiens

T1 sequence (P11940 whole entry): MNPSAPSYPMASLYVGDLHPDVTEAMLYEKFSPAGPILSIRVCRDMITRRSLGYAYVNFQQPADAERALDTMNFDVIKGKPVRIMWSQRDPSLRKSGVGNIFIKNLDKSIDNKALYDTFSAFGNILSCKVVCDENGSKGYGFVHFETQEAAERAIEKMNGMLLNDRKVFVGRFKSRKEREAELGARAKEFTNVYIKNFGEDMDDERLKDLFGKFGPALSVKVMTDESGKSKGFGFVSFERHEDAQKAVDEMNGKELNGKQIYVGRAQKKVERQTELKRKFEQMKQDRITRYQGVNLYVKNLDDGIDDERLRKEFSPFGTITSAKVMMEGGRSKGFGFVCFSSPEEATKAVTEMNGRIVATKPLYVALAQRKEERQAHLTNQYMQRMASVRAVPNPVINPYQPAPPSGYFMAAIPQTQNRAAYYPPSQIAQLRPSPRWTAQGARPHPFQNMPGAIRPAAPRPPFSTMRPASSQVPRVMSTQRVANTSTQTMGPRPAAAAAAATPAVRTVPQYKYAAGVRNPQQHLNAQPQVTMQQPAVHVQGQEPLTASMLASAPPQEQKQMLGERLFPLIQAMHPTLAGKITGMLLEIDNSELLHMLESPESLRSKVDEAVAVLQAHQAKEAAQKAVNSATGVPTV

Compound | IC50 [1] | IC50 [2] | AC50 [5] | further results
Cc1nc(NS(=O)(=O)c2ccccc2)sc1NC(=O)OC(C)C | > 66 µM (inactive) | > 66 µM (inactive) | – | –
CC1(C)CC2=C(CO1)C(S)=NC(c1ccccc1)N2CC1CCCO1 (stereo not drawn) | > 66 µM (inactive) | > 66 µM (inactive) | – | –
N#CC1=C(N)Oc2[nH]nc(-c3cccs3)c2C1c1cccs1 (stereo not drawn) | – | – | – | EC50 [3]: 2.02 µM (active); AC50 [4]: 2.63 µM (active)
Cn1c(=O)c2c(O)cc(N)nc2n(C)c1=O | > 66 µM (inactive) | 56.2 µM (inactive) | – | –
CCCCOc1ccc(C(=O)Nc2ccc3c(c2)OCO3)cc1 | – | – | 1.46 µM (active) | –
COCCOC(=O)C1=C(C)N=C2SCCC(=O)N2C1c1ccc(OC(=O)c2ccco2)cc1 (stereo not drawn) | – | – | – | EC50 [3]: 14 µM (active); AC50 [4]: 19.8 µM (active)
CC(=O)Oc1ccc(C2=NN(c3ccccc3)C(c3ccccc3)C2)cc1 (stereo not drawn) | – | – | 2.63 µM (active) | –
CC(=O)Nc1ccc(S(=O)(=O)NCC(=O)N2CCN(S(=O)(=O)c3cccs3)CC2)cc1 | > 66 µM (inactive) | > 66 µM (inactive) | – | –
Cc1ccc(Nc2cc(C)c3ccc(O)cc3n2)cc1C | – | – | 4.45 µM (active) | –
Cc1ccc(CN2CCSc3ccc(C(=O)NCc4ccco4)cc32)cc1 | – | – | 12.1 µM (active) | –
O=[N+]([O-])c1ccc(COc2ccc(-c3[nH]ncc3-c3ccccc3)c(O)c2)cc1 | – | – | 4.73 µM (active) | –
Cn1c(=O)c(C(=O)NNC(=O)c2ccc(Br)cc2)c(O)c2ccccc21 | – | – | 3.03 µM (active) | –
O=C(Nc1ccc(Cl)cc1)C1c2cccc[n+]2CC(=O)N1Cc1ccc2c(c1)OCO2 (stereo not drawn) | – | – | – | EC50 [3]: 13.3 µM (active); AC50 [4]: > 380 µM (inactive)
Cc1cccc(-n2ncc3c(N4CCCc5ccccc54)ncnc32)c1 | – | – | 7.31 µM (active) | –
COc1cc(NC(S)=Nc2ccc(N(C)C(C)=O)cc2)cc(OC)c1 | > 66 µM (inactive) | > 66 µM (inactive) | – | –
